Data: US6043279A, “Compounds having selective activity for retinoid X receptors, and means for modulation of processes mediated by retinoid X receptors” (priority 1997, dated 2000)

Experiments:
RXRβ = molecular target: T1, RXRβ (Mus musculus, UniProt P28704); assay: co-transfection (cis-trans) assay in CV-1 cells, RXRβ; format: cell-based; conditions: CV-1, read-out: Efficacy RXRβ
T1 construct: expressed in transfected cells; host or cells: CV-1 (monkey kidney)
T1 sequence (P28704 1-520): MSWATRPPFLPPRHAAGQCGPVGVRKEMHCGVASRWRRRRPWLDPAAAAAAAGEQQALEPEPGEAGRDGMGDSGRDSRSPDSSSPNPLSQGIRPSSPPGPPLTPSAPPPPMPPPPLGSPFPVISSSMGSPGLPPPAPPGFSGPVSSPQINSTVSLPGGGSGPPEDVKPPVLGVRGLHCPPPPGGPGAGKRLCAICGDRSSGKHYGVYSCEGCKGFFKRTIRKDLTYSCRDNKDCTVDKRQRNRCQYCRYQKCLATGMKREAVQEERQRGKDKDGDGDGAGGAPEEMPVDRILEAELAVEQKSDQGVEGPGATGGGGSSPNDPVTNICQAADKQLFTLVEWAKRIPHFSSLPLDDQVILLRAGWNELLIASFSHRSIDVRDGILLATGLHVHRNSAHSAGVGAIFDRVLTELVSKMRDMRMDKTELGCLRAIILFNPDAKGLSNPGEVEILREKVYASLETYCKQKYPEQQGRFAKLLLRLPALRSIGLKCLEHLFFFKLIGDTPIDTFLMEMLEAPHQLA
Excerpt: The co-transfection assay provides a mechanism to evaluate the ability of a compound to modulate the transcription response initiated by an intracellular receptor. […] Berger et al., J. Steroid Biochem. Molec.
Briefly, the co-transfection assay involves the introduction of two plasmids by transient transfection into a retinoid receptor-negative mammalian cell background. The first plasmid contains a retinoid receptor cDNA and directs constitutive expression of the encoded receptor. The second plasmid contains a cDNA that encodes for a readily quantifiable protein, e.g., firefly luciferase or chloramphenicol acetyl transferase (CAT), under control of a promoter containing a retinoid acid response element, which confers retinoid dependence on the transcription of the reporter. In this co-transfection assay, all retinoid receptors respond to all-trans-retinoic acid in a similar fashion. This assay can be used to accurately measure efficacy and potency of retinoic acid and synthetic retinoids as ligands that interact with the individual retinoid receptor subtypes.
Accordingly, synthetic retinoid compounds of the current invention were evaluated for their interaction with retinoid receptor subtypes using the co-transfection assay in which CV-1 cells were co-transfected with one of the retinoid receptor subtypes, a reporter construct, and an internal control to allow normalization of the response for transfection efficiency. The following example is illustrative.
Retinoids: All-trans-retinoic acid (RA) and 13-cis-retinoic acid (13-cis-RA) were obtained from Sigma. […] Retinoids were dissolved in dimethylsulfoxide for use in the transcriptional activation assays.
Co-transfection Assay In CV-1 Cells: A monkey kidney cell line, CV-1, was used in the cis-trans assay. Cells were transfected with two plasmids. […] The cis-vector contains an easily assayable gene product, in this case the firefly luciferase, coupled to a retinoid-responsive promoter, i.e., an RARE or RXRE. Addition of retinoic acid or an appropriate synthetic retinoid results in the formation of a retinoid-RAR or -RXR complex that activates the expression of luciferase gene, causing light to be emitted from cell extracts. The level of luciferase activity is directly proportional to the effectiveness of the retinoid-receptor complex in activating gene expression. This sensitive and reproducible co-transfection approach permits the identification of retinoids that interact with the different receptor isoforms.
Cells were cultured in DMEM supplemented with 10% charcoal resin-stripped fetal bovine serum, and experiments were conducted in 96-well plates. […] Cells were transfected for 6 h and then washed to remove the precipitate. The cells were then incubated for 36 h with or without retinoid. After the transfection, all subsequent steps were performed on a Beckman Biomek Automated Workstation. […] All determinations were performed in triplicate in two independent experiments and were normalized for transfection efficiency by using β-galactosidase as the internal control. […] Efficacy values less than 5% are not statistically different than the 0% background.

[1] = tested on: myeloma cell line (RPMI 8226); assay: thymidine incorporation assay in myeloma cell line RPMI 8226; format: cell-based; conditions: RPMI 8226 myeloma cells, FIG. 11
Excerpt: This assay examines the incorporation of radiolabeled thymidine into DNA, and by determining the ability of a compound to inhibit thymidine incorporation into DNA, provides a measure of cell proliferation.

RXRα/PPAR = molecular target: T2, RXRα/PPAR (UniProt P19793+P23204); assay: co-transfection of RXRα and PPAR into HepG2 cells, target reporter gene; format: cell-based; conditions: HepG2, read-out: Normalized Response (%)
T2 construct: expressed in transfected cells; host or cells: HepG2
T2 sequence (P23204 whole entry): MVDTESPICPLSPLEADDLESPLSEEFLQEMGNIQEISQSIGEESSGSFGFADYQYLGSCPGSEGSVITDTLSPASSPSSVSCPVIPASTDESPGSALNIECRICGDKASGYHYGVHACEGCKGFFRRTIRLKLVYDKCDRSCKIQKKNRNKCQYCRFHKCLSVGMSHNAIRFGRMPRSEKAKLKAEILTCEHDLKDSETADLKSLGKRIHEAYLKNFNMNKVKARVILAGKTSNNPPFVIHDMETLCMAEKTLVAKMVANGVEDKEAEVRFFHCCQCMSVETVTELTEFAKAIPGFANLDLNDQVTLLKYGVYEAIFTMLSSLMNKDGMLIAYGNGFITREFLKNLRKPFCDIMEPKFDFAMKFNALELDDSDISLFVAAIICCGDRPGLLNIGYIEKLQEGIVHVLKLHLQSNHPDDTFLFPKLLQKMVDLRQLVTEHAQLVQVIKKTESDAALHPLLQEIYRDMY
T2 sequence (P19793 whole entry): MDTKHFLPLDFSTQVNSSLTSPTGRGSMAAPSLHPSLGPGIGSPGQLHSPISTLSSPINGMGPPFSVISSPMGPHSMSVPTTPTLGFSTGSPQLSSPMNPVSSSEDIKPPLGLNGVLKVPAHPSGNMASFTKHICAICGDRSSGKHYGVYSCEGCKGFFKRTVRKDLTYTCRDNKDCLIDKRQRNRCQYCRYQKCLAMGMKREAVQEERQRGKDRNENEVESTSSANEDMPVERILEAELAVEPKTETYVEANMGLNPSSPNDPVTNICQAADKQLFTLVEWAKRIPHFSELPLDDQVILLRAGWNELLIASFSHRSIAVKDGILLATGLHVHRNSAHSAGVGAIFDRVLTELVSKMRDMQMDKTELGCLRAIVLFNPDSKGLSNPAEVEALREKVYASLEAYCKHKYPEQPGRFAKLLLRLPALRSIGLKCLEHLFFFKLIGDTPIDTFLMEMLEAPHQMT
Excerpt: Specifically, peroxisome proliferator-activated receptor (PPAR) is a member of the intracellular receptor super family that plays a role in the modulation of lipid homeostasis. […] These agents, called peroxisome proliferators, have been used in man as hypolipidemic agents.

RXR = assay: apoA1 "A" site reporter co-transfection in HepG-2 cells with RXR; format: cell-based
Excerpt: (§1) This work focused on studying the transcriptional properties of the retinoid receptors RAR and RXR on a reporter molecule (e.g., luciferase) under control of a basal promoter containing the RXR response element from the apoA1 gene ("A" site). Plasmid constructs coding for the various receptors were transfected into a human hepatocyte cell line (HepG-2) along with the reporter plasmid. […] Widom et al., Mol. Cell. […] After transfection, treatment, harvest, and assay, the data obtained was normalized to transfected beta-galactosidase activity so as to control for transfection efficiency.

Rhino mice = assay: comedolytic test on Rhino mice; format: in vivo
RAR = assay: apoA1 "A" site reporter co-transfection in HepG-2 cells with RAR; format: cell-based
Excerpt: as §1

HL60 = assay: thymidine incorporation assay in HL60 cells; format: cell-based
[2] = rats
Description: Male Sprague-Dawley rats (160-200 gram) were obtained from Harlan. Animals were fed standard laboratory diets (Harlan/Teklad) and kept in an environmentally controlled animal house with a light period lasting from 6 a.m. to 6 p.m. Animals were treated with drugs prepared as suspensions in olive oil.
Plasma was separated and stored at 4° C. for evaluation of plasma total cholesterol and high density lipoprotein cholesterol (HDL-cholesterol).
Plasma total cholesterol was measured enzymatically utilizing Boeringer Mannheim Diagnostics High Performance Cholesterol Methods with an ABBOTT VP Bichromatic Analyzer. HDL cholesterol was measured after preparation of the HDL-containing fraction by heparin-manganese precipitation of plasma. HDL-cholesterol in this fraction was estimated as mentioned earlier. All HDL separations were checked for contamination by other lipoproteins with agarose gel electrophoresis.
Serum samples were taken and analyzed by Western Blot using antisera specific to rat apoA1.

[3] = tested on: ME180, a squamous cell carcinoma; assay: growth of ME180 tumor cells (cell number); format: cell-based, human
Excerpt: (§2) The effects on growth of these cells were monitored by evaluation of cell number, and also by evaluation of growth in semi-solid medium for the RPMI18226 cell line. […] The therapeutic index is defined as the ratio of efficacy to toxicity of a compound.

[4] = tested on: RPMI18226, a multiple myeloma; assay: growth of RPMI18226 tumor cells (cell number, semi-solid medium); format: cell-based, human; conditions: cell number and growth in semi-solid medium
Excerpt: as §2

Work on CC1=C(/C=C/C(C)=C\C=C\C(C)=C\C(=O)O)C(C)(C)CCC1 [9-cis-retinoic acid, reference compound] yielded an Emax (RXRβ) of 140%.

In the case of C/C(=C\c1ccc(C(=O)O)cc1)c1ccc2c(c1)C(C)(C)CCC2(C)C [TTNPB], the “concentrations providing essentially no effect on cell proliferation” value [1] is reported as “less than 10^-11 M”.

CC(C)(Oc1ccc(Cl)cc1)C(=O)O [clofibric Acid, clofibric acid] gave an Emax (RXRα/PPAR) of 100%.

In the case of Cc1cc2c(cc1C(=O)c1ccc(C(=O)O)cc1)C(C)(C)CCC2(C)C [3-methyl-TTNCB, 4-[(3,5,5,8,8-pentamethyl-5,6,7,8-tetrahydro-2-naphthyl)carbonyl]benzoic acid], the “activation of apoA1 "A" site reporter with RXR” value (RXR) is reported as “activation in the system”, the “inhibition of utriculi diameter” value (Rhino mice; 0.1% solution, topical, Rhino mice, FIG. 9) is reported as “approximately 50%” and the “irritation to the skin of Rhino mice” value (Rhino mice; compared with 9-cis- or all-trans-retinoic acid) is reported as “less irritating to the skin of Rhino mice than 9-cis- or all-trans-retinoic acid”. For the same compound, the “effect on apoA1 "A" site reporter with RAR” value (RAR) was “no effect”.

For CC1=C(/C=C/C(C)=C/C=C/C(C)=C/C(=O)O)C(C)(C)CCC1 [all-trans-retinoic acid, All-trans-retinoic acid], the “cellular proliferation (thymidine incorporation)” value (HL60) was “inhibits thymidine incorporation”.

With C=C(c1ccc(C(=O)O)cc1)c1cc2c(cc1C)C(C)(C)CCC2(C)C [3-methyl-TTNEB, 4-[1-(3,5,5,8,8-pentamethyl-5,6,7,8-tetrahydro-2-naphthyl)ethenyl]benzoic acid] the total cholesterol ([2]; 4 days) was “an increase due to the increase of the HDL-cholesterol fraction”, the “plasma HDL-cholesterol at the lowest dose” value ([2]; 4 days, 0.3 mg/kg i.p.) was “significant increases” and the “circulating apoA1 levels” value ([2]; orally 3 mg/kg daily for four days, Western Blot of serum) was “significant increase in circulating apoA1 levels”. For the same compound, the cell growth [3] was “inhibit cell growth in a concentration-dependent manner” and the cell growth [4] was “inhibit cell growth in a concentration-dependent manner”.
